Assay results from patent US12018059B2, “Human amylin analog polypeptides and methods of use” (Intarcia Therapeutics, Inc., priority 2018, dated 2024).
Starred links: 1 amine or outer side, 2 acyl side, 3 side chain; linkers in the order of their positions; H or OH if unused. Positions of bridges follow the written chain, without caps; N, C: chain ends. Non-standard residues stand in square brackets, D forms with d. Residues, ends and D or L forms follow the SMILES beside them. Groups on a side chain read outwards from the residue. *: point of attachment. C20 diacid = O=C(O)CCCCCCCCCCCCCCCCCCC(=O)*; C18 diacid = O=C(O)CCCCCCCCCCCCCCCCC(=O)*; C17 diacid = O=C(O)CCCCCCCCCCCCCCCC(=O)*; C16 diacid = O=C(O)CCCCCCCCCCCCCCC(=O)*; γGlu = O=C(O)[C@H](CCC(=O)[*:2])N[*:1]; C12 diacid = O=C(O)CCCCCCCCCCC(=O)*; Palmitoyl = CCCCCCCCCCCCCCCC(=O)*

Experiment: in vivo
Parameters: species or system Sprague-Dawley rats
Conditions: male, Sprague-Dawley, rat, iv, 0.033 mg/kg
In short: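 Peptide plasma levels measured by UPLC-MS/MS (C18, product-ion monitoring) after protein precipitation or WCX SPE, calibrated in K2EDTA/protease-inhibitor rat plasma. Dosing in non-fasted male Sprague-Dawley rats (n=3): 0.033 mg/kg over 1 h by IV or SC infusion, or 0.3 mg/kg SC bolus; sampling up to 48 h.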
`CC[C@H](C)[C@H](NC(=O)[C@@H]1CCCN1C(=O)CNC(=O)[C@H](Cc1ccccc1)NC(=O)[C@H](CC(N)=O)NC(=O)[C@H](CC(N)=O)NC(=O)[C@H](CO)NC(=O)[C@H](CO)NC(=O)[C@H](CCCCN)NC(=O)[C@H](Cc1c[nH]cn1)NC(=O)[C@H](CCCCNC(=O)CC[C@H](NC(=O)CCCCCCCCCCCCCCCCCCC(=O)O)C(=O)O)NC(=O)[C@H](CCC(=O)O)NC(=O)[C@H](CC(N)=O)NC(=O)[C@H](C)NC(=O)[C@H](CC(C)C)NC(=O)[C@H](CCCNC(=N)N)NC(=O)[C@H](CCC(N)=O)NC(=O)[C@@H](NC(=O)[C@H](C)NC(=O)[C@@H]1CSSC[C@H](NC(=O)[C@@H](N)CO)C(=O)N[C@@H](CC(N)=O)C(=O)N[C@@H]([C@@H](C)O)C(=O)N[C@@H](CO)C(=O)N[C@@H]([C@@H](C)O)C(=O)N1)[C@@H](C)O)C(=O)N[C@@H](CC(C)C)C(=O)N1CCC[C@H]1C(=O)N1CCC[C@H]1C(=O)N[C@H](C(=O)N[C@@H](CCCCN)C(=O)N[C@H](C(=O)NCC(=O)N[C@@H](CO)C(=O)N[C@@H](CCC(=O)O)C(=O)N[C@H](C(=O)N[C@@H](Cc1ccc(O)cc1)C(N)=O)[C@@H](C)O)C(C)C)[C@@H](C)O` [Compound A73] (H-SCNTSTCATQRLANEK([γGlu-C20 diacid])HKSSNNFGPILPPTKVGSETY-NH2; disulfide 2-7; N-terminus assumed) showed a Vd of 0.0924 L/kg, a clearance of 0.0449 mL/min/kg and a half-life of 26.6 h. Work on `CC[C@H](C)[C@H](NC(=O)[C@@H]1CCCN1C(=O)CNC(=O)[C@H](Cc1ccccc1)NC(=O)[C@H](CC(N)=O)NC(=O)[C@H](CC(N)=O)NC(=O)[C@H](CO)NC(=O)[C@H](CO)NC(=O)[C@H](CCCCN)NC(=O)[C@H](Cc1c[nH]cn1)NC(=O)[C@H](CCCCNC(=O)CCCCCCCCCCCCCCCCCCC(=O)O)NC(=O)[C@H](CCC(=O)O)NC(=O)[C@H](CC(N)=O)NC(=O)[C@H](C)NC(=O)[C@H](CC(C)C)NC(=O)[C@H](CCCNC(=N)N)NC(=O)[C@H](CCC(N)=O)NC(=O)[C@@H](NC(=O)[C@H](C)NC(=O)[C@@H]1CSSC[C@H](NC(=O)[C@@H](N)CO)C(=O)N[C@@H](CC(N)=O)C(=O)N[C@@H]([C@@H](C)O)C(=O)N[C@@H](CO)C(=O)N[C@@H]([C@@H](C)O)C(=O)N1)[C@@H](C)O)C(=O)N[C@@H](CC(C)C)C(=O)N1CCC[C@H]1C(=O)N1CCC[C@H]1C(=O)N[C@H](C(=O)N[C@@H](CCCCN)C(=O)N[C@H](C(=O)NCC(=O)N[C@@H](CO)C(=O)N[C@@H](CCC(=O)O)C(=O)N[C@H](C(=O)N[C@@H](Cc1ccc(O)cc1)C(N)=O)[C@@H](C)O)C(C)C)[C@@H](C)O` [Compound A75] (H-SCNTSTCATQRLANEK(C20 diacid)HKSSNNFGPILPPTKVGSETY-NH2; disulfide 2-7; N-terminus assumed) yielded a Vd of 0.121 L/kg, a clearance of 0.0781 mL/min/kg and a half-life of 24.1 h. With `CC[C@H](C)[C@H](NC(=O)[C@@H]1CCCN1C(=O)CNC(=O)[C@H](Cc1ccccc1)NC(=O)[C@H](CC(N)=O)NC(=O)[C@H](CC(N)=O)NC(=O)[C@H](CO)NC(=O)[C@H](CO)NC(=O)[C@H](CCCCN)NC(=O)[C@H](Cc1c[nH]cn1)NC(=O)[C@H](CCCCNC(=O)CC[C@H](NC(=O)CCCCCCCCCCCCCCCCC(=O)O)C(=O)O)NC(=O)[C@H](CCC(=O)O)NC(=O)[C@H](CC(N)=O)NC(=O)[C@H](C)NC(=O)[C@H](CC(C)C)NC(=O)[C@H](CCCNC(=N)N)NC(=O)[C@H](CCC(N)=O)NC(=O)[C@@H](NC(=O)[C@H](C)NC(=O)[C@@H]1CSSC[C@H](NC(=O)[C@@H](N)CO)C(=O)N[C@@H](CC(N)=O)C(=O)N[C@@H]([C@@H](C)O)C(=O)N[C@@H](CO)C(=O)N[C@@H]([C@@H](C)O)C(=O)N1)[C@@H](C)O)C(=O)N[C@@H](CC(C)C)C(=O)N1CCC[C@H]1C(=O)N1CCC[C@H]1C(=O)N[C@H](C(=O)N[C@@H](CCCCN)C(=O)N[C@H](C(=O)NCC(=O)N[C@@H](CO)C(=O)N[C@@H](CCC(=O)O)C(=O)N[C@H](C(=O)N[C@@H](Cc1ccc(O)cc1)C(N)=O)[C@@H](C)O)C(C)C)[C@@H](C)O` [Compound A76] (H-SCNTSTCATQRLANEK([γGlu-C18 diacid])HKSSNNFGPILPPTKVGSETY-NH2; disulfide 2-7; N-terminus assumed) the Vd was 0.176 L/kg, the clearance was 0.105 mL/min/kg and the half-life was 21.3 h. `CC[C@H](C)[C@H](NC(=O)[C@@H]1CCCN1C(=O)CNC(=O)[C@H](Cc1ccccc1)NC(=O)[C@H](CC(N)=O)NC(=O)[C@H](CC(N)=O)NC(=O)[C@H](CO)NC(=O)[C@H](CO)NC(=O)[C@H](CCCCN)NC(=O)[C@H](Cc1c[nH]cn1)NC(=O)[C@H](CCCCNC(=O)CCCCCCCCCCCCCCCC(=O)O)NC(=O)[C@H](CCC(=O)O)NC(=O)[C@H](CC(N)=O)NC(=O)[C@H](C)NC(=O)[C@H](CC(C)C)NC(=O)[C@H](CCCNC(=N)N)NC(=O)[C@H](CCC(N)=O)NC(=O)[C@@H](NC(=O)[C@H](C)NC(=O)[C@@H]1CSSC[C@H](NC(=O)[C@@H](N)CO)C(=O)N[C@@H](CC(N)=O)C(=O)N[C@@H]([C@@H](C)O)C(=O)N[C@@H](CO)C(=O)N[C@@H]([C@@H](C)O)C(=O)N1)[C@@H](C)O)C(=O)N[C@@H](CC(C)C)C(=O)N1CCC[C@H]1C(=O)N1CCC[C@H]1C(=O)N[C@H](C(=O)N[C@@H](CCCCN)C(=O)N[C@H](C(=O)NCC(=O)N[C@@H](CO)C(=O)N[C@@H](CCC(=O)O)C(=O)N[C@H](C(=O)N[C@@H](Cc1ccc(O)cc1)C(N)=O)[C@@H](C)O)C(C)C)[C@@H](C)O` [Compound A79] (H-SCNTSTCATQRLANEK(C17 diacid)HKSSNNFGPILPPTKVGSETY-NH2; disulfide 2-7; N-terminus assumed) showed a Vd of 0.115 L/kg, a clearance of 0.162 mL/min/kg and a half-life of 7.8 h.

Same assay, conditions: rat, iv, 0.033 mg/kg
Work on `CCCCCCCCCCCCCCCC(=O)N[C@@H](CCC(=O)N[C@@H](CCC(=O)NCCCC[C@@H](NC(=O)[C@H](Cc1ccccc1)NC(=O)[C@H](CC(N)=O)NC(=O)[C@H](C)NC(=O)[C@H](CC(C)C)NC(=O)[C@H](CCCNC(=N)N)NC(=O)[C@H](CCC(N)=O)NC(=O)[C@@H](NC(=O)[C@H](C)NC(=O)[C@@H]1CSSC[C@H](NC(=O)[C@@H](N)CO)C(=O)N[C@@H](CC(N)=O)C(=O)N[C@@H]([C@@H](C)O)C(=O)N[C@@H](CO)C(=O)N[C@@H]([C@@H](C)O)C(=O)N1)[C@@H](C)O)C(=O)N[C@@H](Cc1c[nH]cn1)C(=O)N[C@@H](CCCCN)C(=O)N[C@@H](CO)C(=O)N[C@@H](CO)C(=O)N[C@@H](CC(N)=O)C(=O)N[C@@H](CC(N)=O)C(=O)N[C@@H](Cc1ccccc1)C(=O)NCC(=O)N1CCC[C@H]1C(=O)N[C@H](C(=O)N[C@@H](CC(C)C)C(=O)N1CCC[C@H]1C(=O)N1CCC[C@H]1C(=O)N[C@H](C(=O)N[C@@H](CCCCN)C(=O)N[C@H](C(=O)NCC(=O)N[C@@H](CO)C(=O)N[C@@H](CCC(=O)O)C(=O)N[C@H](C(=O)N[C@@H](Cc1ccc(O)cc1)C(N)=O)[C@@H](C)O)C(C)C)[C@@H](C)O)[C@@H](C)CC)C(=O)O)C(=O)O` [Compound A70] (H-SCNTSTCATQRLANF[dK]([γGlu-γGlu-Palmitoyl])HKSSNNFGPILPPTKVGSETY-NH2; disulfide 2-7) yielded a Vd of 0.187 L/kg, a clearance of 3.08 mL/min/kg and a half-life of 0.752 h. In the case of `CC[C@H](C)[C@H](NC(=O)[C@@H]1CCCN1C(=O)CNC(=O)[C@H](Cc1ccccc1)NC(=O)[C@H](CC(N)=O)NC(=O)[C@H](CC(N)=O)NC(=O)[C@H](CO)NC(=O)[C@H](CO)NC(=O)[C@H](CCCCN)NC(=O)[C@H](Cc1c[nH]cn1)NC(=O)[C@H](CC(C)C)NC(=O)[C@H](CCCCNC(=O)CCCCCCCCCCCCCCC(=O)O)NC(=O)[C@H](CC(N)=O)NC(=O)[C@H](C)NC(=O)[C@H](CC(C)C)NC(=O)[C@H](CCCNC(=N)N)NC(=O)[C@H](CCC(N)=O)NC(=O)[C@@H](NC(=O)[C@H](C)NC(=O)[C@@H]1CSSC[C@H](NC(=O)[C@@H](N)CO)C(=O)N[C@@H](CC(N)=O)C(=O)N[C@@H]([C@@H](C)O)C(=O)N[C@@H](CO)C(=O)N[C@@H]([C@@H](C)O)C(=O)N1)[C@@H](C)O)C(=O)N[C@@H](CC(C)C)C(=O)N1CCC[C@H]1C(=O)N1CCC[C@H]1C(=O)N[C@H](C(=O)N[C@@H](CCCCN)C(=O)N[C@H](C(=O)NCC(=O)N[C@@H](CO)C(=O)N[C@@H](CCC(=O)O)C(=O)N[C@H](C(=O)N[C@@H](Cc1ccc(O)cc1)C(N)=O)[C@@H](C)O)C(C)C)[C@@H](C)O` [Compound A72] (H-SCNTSTCATQRLANK(C16 diacid)LHKSSNNFGPILPPTKVGSETY-NH2; disulfide 2-7), the Vd is reported as 0.172 L/kg, the clearance is reported as 1.54 mL/min/kg and the half-life is reported as 3.44 h. Molecule `CC[C@H](C)[C@H](NC(=O)[C@@H]1CCCN1C(=O)CNC(=O)[C@H](Cc1ccccc1)NC(=O)[C@H](CC(N)=O)NC(=O)[C@H](CC(N)=O)NC(=O)[C@H](CO)NC(=O)[C@H](CO)NC(=O)[C@H](CCCCN)NC(=O)[C@H](Cc1c[nH]cn1)NC(=O)[C@H](CCCCNC(=O)CCCCCCCCCCC(=O)O)NC(=O)[C@H](CCC(=O)O)NC(=O)[C@H](CC(N)=O)NC(=O)[C@H](C)NC(=O)[C@H](CC(C)C)NC(=O)[C@H](CCCNC(=N)N)NC(=O)[C@H](CCC(N)=O)NC(=O)[C@@H](NC(=O)[C@H](C)NC(=O)[C@@H]1CSSC[C@H](NC(=O)[C@@H](N)CO)C(=O)N[C@@H](CC(N)=O)C(=O)N[C@@H]([C@@H](C)O)C(=O)N[C@@H](CO)C(=O)N[C@@H]([C@@H](C)O)C(=O)N1)[C@@H](C)O)C(=O)N[C@@H](CC(C)C)C(=O)N1CCC[C@H]1C(=O)N1CCC[C@H]1C(=O)N[C@H](C(=O)N[C@@H](CCCCN)C(=O)N[C@H](C(=O)NCC(=O)N[C@@H](CO)C(=O)N[C@@H](CCC(=O)O)C(=O)N[C@H](C(=O)N[C@@H](Cc1ccc(O)cc1)C(N)=O)[C@@H](C)O)C(C)C)[C@@H](C)O` [Compound A74] (H-SCNTSTCATQRLANEK(C12 diacid)HKSSNNFGPILPPTKVGSETY-NH2; disulfide 2-7) has a Vd of 0.331 L/kg, a clearance of 12.2 mL/min/kg and a half-life of 0.331 h.
